According to publication PMC7932537, “Quantitative profiling of protease specificity” (PLoS Computational Biology, 2021):

Assays:
MMP-2 [1] = test: Substrate phage display with NGS: relative probability (RP) of P3-P1' tetramer clusters; format: biochemical, human; details: MMP2;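 note: ratio of tetramer probability after protease selection to that in naive phage library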
MMP-2 [2] = molecular target: T1, MMP-2 (Homo sapiens, UniProt P08253); test: K(obs) of individual phage substrates (set of 1369); format: biochemical; details: MMP2
T1 sequence (P08253 110-660): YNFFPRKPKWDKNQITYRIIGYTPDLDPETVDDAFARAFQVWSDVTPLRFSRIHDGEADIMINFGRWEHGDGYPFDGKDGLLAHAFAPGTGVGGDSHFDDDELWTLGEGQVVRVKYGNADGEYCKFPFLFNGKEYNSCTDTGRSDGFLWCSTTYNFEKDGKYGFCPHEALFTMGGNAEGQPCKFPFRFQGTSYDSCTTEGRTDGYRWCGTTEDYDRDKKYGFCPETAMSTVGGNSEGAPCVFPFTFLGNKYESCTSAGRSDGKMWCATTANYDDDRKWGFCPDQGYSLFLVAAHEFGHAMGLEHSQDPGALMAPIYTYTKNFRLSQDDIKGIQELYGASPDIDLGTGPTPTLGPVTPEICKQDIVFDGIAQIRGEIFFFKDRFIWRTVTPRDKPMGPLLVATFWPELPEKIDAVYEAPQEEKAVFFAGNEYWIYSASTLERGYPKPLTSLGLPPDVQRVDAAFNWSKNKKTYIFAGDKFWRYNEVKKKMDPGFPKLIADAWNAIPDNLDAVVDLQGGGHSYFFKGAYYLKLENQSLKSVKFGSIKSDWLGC

MMP-9 = MMP-9 (Homo sapiens, UniProt P14780); test: as above; format: biochemical; details: MMP9
Chain of MMP-9 (P14780 94-707): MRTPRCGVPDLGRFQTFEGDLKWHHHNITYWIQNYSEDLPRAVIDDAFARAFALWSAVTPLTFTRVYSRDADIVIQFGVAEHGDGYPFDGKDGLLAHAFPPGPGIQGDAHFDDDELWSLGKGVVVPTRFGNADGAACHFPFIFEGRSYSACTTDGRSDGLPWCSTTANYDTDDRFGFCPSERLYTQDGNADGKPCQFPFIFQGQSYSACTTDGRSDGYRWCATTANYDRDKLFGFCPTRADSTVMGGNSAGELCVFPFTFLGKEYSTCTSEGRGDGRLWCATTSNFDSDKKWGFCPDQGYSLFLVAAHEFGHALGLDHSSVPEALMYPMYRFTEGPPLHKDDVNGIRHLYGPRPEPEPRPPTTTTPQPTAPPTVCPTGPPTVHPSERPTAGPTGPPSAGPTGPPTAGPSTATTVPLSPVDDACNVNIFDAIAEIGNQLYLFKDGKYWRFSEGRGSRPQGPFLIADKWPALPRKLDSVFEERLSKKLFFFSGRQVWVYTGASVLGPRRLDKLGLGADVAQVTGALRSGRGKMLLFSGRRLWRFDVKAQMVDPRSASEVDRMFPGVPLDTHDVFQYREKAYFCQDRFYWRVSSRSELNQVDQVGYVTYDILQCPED

[3] = RP of the P3-P1' tetramer contained in the substrate
[4] = individual phage substrate of the set of 1369 peptides, cleavage position marked by '-'
[5] = individual phage substrate of the set of 1369 peptides, dash in the sequence marks the cleavage position
[6] = RP of the P3-P1' tetramer contained in the substrate (substrate phage display with NGS)
[7] = individual phage substrates, set of 1369 peptides, cleavage position marked by hyphen in sequence
[8] = individual phage substrates, set of 1369 peptides, hyphen in sequence marks cleavage position

| Substance | relative probability (RP) (MMP-2 [1]; [3]) | Kobs (MMP-2 [2]; [4]) [M⁻¹ s⁻¹] | Kobs (MMP-9; [5]) [M⁻¹ s⁻¹] | relative probability (RP) (MMP-2 [1]; [6]) | Kobs (MMP-2 [2]; [7]) [M⁻¹ s⁻¹] | Kobs (MMP-9; [8]) [M⁻¹ s⁻¹] |
| --- | --- | --- | --- | --- | --- | --- |
| SGPLG-YTVTA | 33.1744 | 12792.1 | 12792.1 | – | – | – |
| FGPYA-MTASG | 28.0901 | 1870.4 | 12792.1 | – | – | – |
| TKWLA-LTASG | – | – | – | 1.218 | 3079.62 | 3637.04 |
| RTPIG-ITASG | 31.281 | 9740.44 | 12792.1 | – | – | – |
| RDLSH-LTASG | – | – | – | 29.8814 | 9740.44 | 261.974 |
| SGAHG-LLLTA | 23.6336 | 517.582 | 1071.29 | – | – | – |
| GTPSA-LTTAS | – | – | – | 36.1873 | 12792.1 | 12792.1 |
| AKVMS-LTASG | – | – | – | 14.6983 | 1513.13 | 2218.08 |
| SGPAY-WRTTA | – | – | – | 27.2209 | 12792.1 | 1610.61 |
| ATPES-LTASG | 26.0767 | 8941.32 | 6131.32 | – | – | – |
| GVIRF-LRTAS | 12.1004 | 10866.7 | 9740.44 | – | – | – |
| YDSRG-LTASG | 6.164 | 1239.69 | 231.616 | – | – | – |
| LVGRA-LTASG | 7.944 | 6688.74 | 2476.66 | – | – | – |
| RMLAQ-LTASG | – | – | – | 25.841 | 12792.1 | 113.394 |
| SLVRF-LTASG | 15.0438 | 12792.1 | 12792.1 | – | – | – |
| SGVWG-IYVTA | – | – | – | 3.01 | 484.315 | 2761.81 |
| WKVSS-LTASG | – | – | – | 29.0891 | 10866.7 | 2218.08 |
| GYIQS-LFTAS | – | – | – | 25.2682 | 5461.43 | 0 |

| Substance | relative probability (RP) (MMP-2 [1]; [3]) | Kobs (MMP-2 [2]; [4]) [M⁻¹ s⁻¹] | Kobs (MMP-9; [5]) [M⁻¹ s⁻¹] | relative probability (RP) (MMP-2 [1]; [6]) | Kobs (MMP-2 [2]; [7]) [M⁻¹ s⁻¹] | Kobs (MMP-9; [8]) [M⁻¹ s⁻¹] |
| --- | --- | --- | --- | --- | --- | --- |
| GMPWS-VTASG | – | – | – | 0.3793 | 1513.13 | 6131.32 |
| GSPAS-LRTAS | 36.4285 | 12792.1 | 12792.1 | – | – | – |
| VHFAS-LTASG | 15.5827 | 12792.1 | 1030.73 | – | – | – |
| HAPLN-FTASG | 28.3679 | 12792.1 | 10866.7 | – | – | – |
| SIVRM-LTASG | – | – | – | 15.9125 | 7386.83 | 4335.13 |
| GSVWA-LTASG | – | – | – | 12.7502 | 1870.4 | 4922.1 |
| SGTLN-LYNTA | 2.764 | 0 | 0 | – | – | – |
| SGMAA-LKRTA | 32.6562 | 3741.87 | 0 | – | – | – |
| SGVYS-LIKTA | – | – | – | 16.838 | 27.918 | 836.403 |
| RPPSS-LTASG | – | – | – | 35.4913 | 10866.7 | 9740.44 |
| TVPRA-WTASG | – | – | – | 34.1791 | 8941.32 | 8941.32 |
| SIHLA-LTASG | – | – | – | 11.3603 | 1561.44 | 171.876 |
| IGPQF-LTASG | 26.3159 | 12792.1 | 12792.1 | – | – | – |
| NRLSH-WTASG | – | – | – | 23.1226 | 12792.1 | 912.511 |
| ENFLH-LTASG | – | – | – | 0.8093 | 142.481 | 27.918 |
| SGYRS-LTLTA | – | – | – | 1.506 | 292.668 | 27.918 |
| SGPVA-LYKTA | – | – | – | 34.2983 | 12792.1 | 12792.1 |
